Active and inactive are the calls of the source. The calls are words filed in the database; no cut-off is given here.
Columns and labels:
HepG2 [1] = experiment: Cytotoxicity against human HepG2 cells assessed as reduction in cell viability incubated for 48 hrs by MTT assay; assay type: functional, cell-based; conditions: HepG2, 48 h
[2] = Toxicity in BALB/c mouse xenografted with human HepG2 cells assessed as death at 45 mg/kg, ip administered for once every 3 days measured after 15 days; assay type: organism-based; conditions: in vivo, 360 h, time 15 day
HepG2 [3] = experiment: Antitumor activity against human HepG2 cells xenografted BALB/c mouse assessed as reduction in tumor growth at 30 mg/kg, ip administered for once every 3 days measured after 15 days; assay type: functional, organism-based; conditions: time 15.0 day
HepG2 [4] = experiment: Cytotoxicity against human HepG2 cells assessed as reduction in cell viability in presence of H2O2 incubated for 48 hrs by MTT assay; assay type: functional, cell-based
HeLa = experiment: Cytotoxicity against human HeLa cells assessed as reduction in cell viability incubated for 48 hrs by MTT assay; assay type: functional, cell-based
[5] = Toxicity in human HepG2 cells xenografted BALB/c mouse assessed as reduction in body weight at 30 mg/kg, ip administered for once every 3 days measured after 15 days; assay type: organism-based; set-up: scale not given: the % may be the effect or the level left; conditions: in vivo, 360 h, time 15 day
[6] = Drug uptake in human HepG2 cells increase in fluorescence level at 10 uM by fluorescence microscopy; assay type: ADME, cell-based; conditions: hepg2, 10 µM, TDE = time-dependent effect
[7] = Antitumor activity against human HepG2 cells xenografted BALB/c mouse assessed as reduction in tumor weight at 30 mg/kg, ip administered for once every 3 days measured after 15 days; assay type: functional; set-up: scale not given: the % may be the effect or the level left; conditions: time 15 day
SMMC-7721 = experiment: Cytotoxicity against human SMMC-7721 cells assessed as reduction in cell viability incubated for 48 hrs by MTT assay; assay type: functional, cell-based; conditions: SMMC-7721, 48 h
A549 = experiment: Cytotoxicity against human A549 cells assessed as reduction in cell viability incubated for 48 hrs by MTT assay; assay type: functional, cell-based; conditions: A549, 48 h
[8] = Prodrug activation in TE buffer assessed as alterations in fluorescence intensity at 10 uM incubated for 60 mins; conditions: 1 h
[9] = Prodrug activation assessed as increase in fluorescence intensity in presence of GSH at 10 uM incubated for 60 mins; conditions: 1 h
[10] = GSH reactivity assessed as oxidation of GSH to GSSG at 10 uM measured after 60 mins by HPLC analysis; assay type: ADME; conditions: 1 h
[11] = Prodrug activation assessed as fluorescence intensity in presence of 5 mM GSH at 100 uM incubated for 12 hrs further incubated with selenol probe Probe 1 followed by addition of 1 mM GSH measured after 4 mins; conditions: 5000 µM
[12] = Prodrug activation assessed as increase in ferro cytochrome c production in presence of GSH and SOD by cytochrome c reduction assay
[13] = Prodrug activation assessed as increase in fluorescence intensity in presence of Cys at 10 uM incubated for 15 mins by HPLC analysis; conditions: 0.25 h
HepG2 [14] = experiment: Inhibition of redox balance in human HepG2 cells assessed as reduction in cellular thiols incubated for 24 hrs; assay type: functional, cell-based
[15] = Prodrug activation assessed as changes in fluorescence intensity in presence of GSH at 100 uM incubated for 12 hrs further incubated with selenol probe Probe 1
HepG2 [16] = experiment: Induction of apoptosis in human HepG2 cells assessed as increase in apoptotic cells for 48 hrs by FITC-annexin V/PI double staining based flow cytometry; assay type: functional, cell-based
[17] = Prodrug release in TE buffer assessed as increase in camptothecin level at 10 uM measured within 10 mins in the presence of GSH by HPLC analysis; assay type: ADME
[18] = Prodrug activation in TE buffer assessed as fold change in fluorescence intensity at 10 uM in presence of GSH
HepG2 [19] = experiment: Inhibition of redox balance in human HepG2 cells assessed as reduction in GSH/GSSG ratio incubated for 24 hrs; assay type: functional, cell-based
[20] = Prodrug activation in human HepG2 cells assessed as increase in camptothecin level by measuring fluorescence level at 10 uM by fluorescence microscopy; assay type: cell-based; conditions: hepg2, 10 µM, TDE = time-dependent effect, time 15-90 min
HepG2 [21] = experiment: Induction of ROS generation in human HepG2 cells assessed as increase in ROS accumulation for 6 hrs by DCFH-DA staining based fluorescence assay; assay type: functional, cell-based; conditions: dose 2-5 µM
[22] = Prodrug activation assessed as production of selenol intermediate concentration in the presence of GSH incubated with Probe 1

| Structure (SMILES) | IC50 (HepG2 [1]) [µM] | IC50 (HeLa) [µM] | IC50 (SMMC-7721) [µM] | IC50 (A549) [µM] | Drug metabolism [8] | further results |
| --- | --- | --- | --- | --- | --- | --- |
| CC[C@@]1(O)C(=O)OCc2c1cc1n(c2=O)Cc2cc3ccccc3nc2-1 [CAMPTOTHECIN] | 3.5 | 8.28 | > 10 | – | – | Activity [2]: Toxic; Activity (HepG2 [3]): Active; Activity (HepG2 [4]): Active; Activity [5]: < 10%; Drug uptake [6]: Tde; Activity [7]: 53% |
| CC[C@@]1(OC(=O)OC2(CO)C[Se][Se]C2)C(=O)OCc2c1cc1n(c2=O)Cc2cc3ccccc3nc2-1 | 6.02 | 9.17 | > 10 | > 10 | Metabolite_Notdetected | Drug metabolism [9]: Metabolite_Detected |
| CC[C@@]1(OC(=O)OCC[Se][Se]CCO)C(=O)OCc2c1cc1n(c2=O)Cc2cc3ccccc3nc2-1 | 2.54 | 2.56 | 6.4 | 3.3 | Metabolite_Notdetected | Drug metabolism [10]: Metabolite_Detected; Drug metabolism [11]: Metabolite_Detected; Activity [2]: Toxic; Activity (HepG2 [3]): Active; Drug metabolism [12]: Not Active; Drug metabolism [13]: Metabolite_Detected; inhibition (HepG2 [14]): Active; Activity [15]: Not Active; Activity [5]: < 10%; Activity (HepG2 [16]): Active; Activity [17]: 90%; fold change (FC) [18]: 10; inhibition (HepG2 [19]): Active; Drug metabolism [20]: Tde; Activity (HepG2 [21]): Active; Activity [7]: 75%; Drug metabolism [22]: 104.4 µM |
| CC[C@@]1(OC(=O)NC2C[Se][Se]C2)C(=O)OCc2c1cc1n(c2=O)Cc2cc3ccccc3nc2-1 | > 10 | > 10 | > 10 | > 10 | Metabolite_Notdetected | Drug metabolism [9]: Metabolite_Notdetected |
| CC[C@@]1(OC(=O)OCCSSCCO)C(=O)OCc2c1cc1n(c2=O)Cc2cc3ccccc3nc2-1 | 4.86 | 9.62 | > 10 | > 10 | – | Drug metabolism [17]: Metabolite_Notdetected |
| CC[C@@]1(OC(=O)OCCCCCCO)C(=O)OCc2c1cc1n(c2=O)Cc2cc3ccccc3nc2-1 | > 10 | > 10 | > 10 | > 10 | – | – |
| CC[C@@]1(OC(=O)NC2CCCC2)C(=O)OCc2c1cc1n(c2=O)Cc2cc3ccccc3nc2-1 | > 10 | > 10 | > 10 | > 10 | – | – |
| CC[C@@]1(OC(=O)OC2CCCC2)C(=O)OCc2c1cc1n(c2=O)Cc2cc3ccccc3nc2-1 | > 10 | > 10 | > 10 | > 10 | – | – |
